Assay results as given in US20180008620A1, “METHODS OF TREATING NEUROLOGICAL INFLAMMATORY DISORDERS” (Mayo Foundation for Medical Education and Research, priority 2015, published 2018).

Columns and labels:
[1] = tested on: Neurons cultured from neonatal mice; assay: Calcium imaging of spontaneous network activity (GCaMP reporter); assay type: cell-based, mouse; settings: for correlation of spontaneous activity (Pearson correlation matrix): cytokine-stimulated cultures vs vehicle control (overall uncorrelated); for correlation of spontaneous activity (Pearson correlation matrix) / absolute number of spontaneously active cells: FIG. 7; for absolute number of spontaneously active cells: cytokine-stimulated networks, vehicle control 42 neurons
Experimental: The PBS control cultures show low amplitude calcium transients that are non-synchronous. […] Calcium levels were monitored using a fluorescent reporter transduced into the neurons with […].
The Pearson correlation matrix was calculated for all of the neurons showing spontaneous activity in the culture and heat-mapped (red=highly correlated activity; blue=uncorrelated activity). In the vehicle control neurons, there is a small cluster of synchronous activity but the overall network is uncorrelated.
Neurons are cultured in glass imaging chambers under conditions that promote formation of mature synaptic networks. Cells are infected with an AAV1.Syn.GCaMP6f calcium reporter that provides fast optical tracking of intracellular calcium levels (Akerboom et al., 2012, J. Neurosci., 32:[…]; Chen et al., 2013, Nature, 499:295-300). Calcium levels are monitored in real-time using a Zeiss 5-Live confocal microscope equipped with environmental chamber. Following collection of baseline spontaneous activity levels at low magnification, inflammatory cytokine is added at the optimal cytokine concentration determined above, and cells are followed for up to 60 minutes. Images are post-processed in Image J to measure calcium transient amplitudes and frequencies within defined cells. In some experiments, an Olympus multi-photon microscope is used at high magnification to track activity in individual synapses. In addition to spontaneous activity, calcium flux elicited by addition of glutamate to cultures that have been pretreated with inflammatory cytokines for different times (0, 1, 3, 6, 12, 24, 48, 72, or 96 hr) prior to stimulation also is measured.
Neurons were cultured from neonatal mice and stimulated with TNF alpha (100 ng/mL) or IFN gamma (500 U/mL) for 24 hr. Following transduction with an AAV-encoded GCaMPf reporter, fast calcium transients were imaged in the cells. Regions of interest outlining individual neurons were defined in each frame of movies collected over several minutes, and the fluorescence intensity of each cell was graphed through time to reveal patterns in the population response.

Mouse cortical neurons [2] = assay: IFN gamma stimulation of distal axons in two-chamber device, microarray of cell body RNA; assay type: cell-based; settings: IFN gamma added to axon chamber, RNA from cell body chamber 72 hours later
Experimental: Mouse cortical neurons were cultured in a two-chamber device that separates cell bodies from axons. Panel A is a schematic of the chambered device constructed in PDMS polymer. Panel B is a low-magnification image of the corresponding regions shown in Panel A stained with an antibody against neurofilament (an axon-specific protein). Higher magnification images are shown of the cell body chamber (Panel C), the axon grooves (Panel D), and the axon chamber (Panel E). DAPI staining indicates the complete absence of any cells in the axon chamber. Panel F is a schematic showing the experimental design: IFNgamma was added to the pure axons in the axon chamber; RNA was collected from the cell body chamber 72 hours later and analyzed by microarray to identify changes in gene expression.
Mouse cortical neurons were cultured in a two-chamber device that separates cell bodies from axons.
IFN gamma was added to the pure axons in the axon chamber, and RNA was collected from the cell body chamber 72 hours later. The RNA was analyzed by microarray to identify changes in gene expression.

Mouse cortical neurons [3] = assay: IFN gamma-induced transcriptional changes, Illumina BeadArray; assay type: cell-based; settings: IFN gamma 500 U/mL, 24 hr, vs untreated controls; mean±95% confidence intervals
Experimental: Cortical neurons were prepared from embryonic day 15 C57BL/6 mouse fetuses, following published protocols (Sauer et al., 2013, Neurobiol. Dis., 59:194-205). In preliminary experiments, after one week in vitro, the neurons were stimulated for 24 hr with IFN gamma (500 U/mL). Quadruplicate RNA samples were collected under treated and untreated conditions, and changes in gene expression were assessed using the Illumina BeadArray system. Only genes that were detected at P<0.05 on the array were considered for further analysis. Expression levels were […] and the relative level of expression following IFN gamma stimulation was compared to untreated controls. Table 1 provides mean±95% confidence intervals; the appropriate statistical test was chosen based on normality and equal variance tests.

[4] = TNF alpha 100 ng/mL or IFN gamma 500 U/mL for 24 hr, FIGS. 8B and 8C

NCCCC(=O)O [GABA, reference compound]
averaged calcium responses / synaptic activity ([1]; 27 μM GABA added to control cultures, FIG. 8E): completely suppresses synaptic activity

IFN gamma: inflammatory cytokine interferon gamma used to stimulate neurons
GTP cyclohydrolase I expression in neuron cell bodies (Mouse cortical neurons [2]): significantly up-regulated | MOCOS expression in neuron cell bodies (Mouse cortical neurons [2]): robust up-regulation | aldehyde dehydrogenase expression in neuron cell bodies (Mouse cortical neurons [2]): significantly up-regulated | gephyrin expression in neuron cell bodies (Mouse cortical neurons [2]): down-regulation | glycine receptor beta subunit expression in neuron cell bodies (Mouse cortical neurons [2]): down-regulation | xanthine dehydrogenase expression in neuron cell bodies (Mouse cortical neurons [2]): significantly up-regulated | GABA receptor elements expression in neuron cell bodies (Mouse cortical neurons [2]; not shown): down-regulation | gephyrin-binding scaffolds expression in neuron cell bodies (Mouse cortical neurons [2]; not shown): down-regulation | Fold Change, gene Actb (housekeeping) (Mouse cortical neurons [3]): 1.04 ± 0.06 fold | Fold Change, gene Aldh1a1 (Mouse cortical neurons [3]): 2.46 ± 0.08 fold | Fold Change, gene Collybistin (Mouse cortical neurons [3]): 0.71 ± 0.06 fold | Fold Change, gene GABA A R α3 (Mouse cortical neurons [3]): 0.66 ± 0.10 fold | Fold Change, gene GABA A R β1 (Mouse cortical neurons [3]): 0.56 ± 0.09 fold | Fold Change, gene GABA A R β2 (Mouse cortical neurons [3]): 0.80 ± 0.09 fold | Fold Change, gene GABA A R β3 (Mouse cortical neurons [3]): 0.75 ± 0.07 fold | Fold Change, gene GABA A R γ2 (Mouse cortical neurons [3]): 0.64 ± 0.05 fold | Fold Change, gene GABA B R2 (Mouse cortical neurons [3]): 0.71 ± 0.10 fold | Fold Change, gene Gapdh (Mouse cortical neurons [3]): 1.03 ± 0.06 fold | Fold Change, gene Gch1 (Mouse cortical neurons [3]): 1.59 ± 0.04 fold | Fold Change, gene Gephyrin (Mouse cortical neurons [3]): 0.75 ± 0.05 fold | Fold Change, gene Glycine R β1 (Mouse cortical neurons [3]): 0.59 ± 0.07 fold | Fold Change, gene MOCOS (Mouse cortical neurons [3]): 2.97 ± 0.21 fold | Fold Change, gene Xdh (Mouse cortical neurons [3]): 1.47 ± 0.14 fold | averaged calcium responses / network activity [1, 4]: network bursting and highly synchronized synaptic activity | correlation of spontaneous activity (Pearson correlation matrix) [1]: nearly complete correlation across the entire network | absolute number of spontaneously active cells [1]: 137 neurons

TNF alpha
averaged calcium responses / network activity [1, 4]: network bursting and highly synchronized synaptic activity | correlation of spontaneous activity (Pearson correlation matrix) [1]: nearly complete correlation across the entire network | absolute number of spontaneously active cells [1]: 151 neurons | spontaneous calcium levels in neurons ([1]; stimulated for 24 hr, vs PBS control with low amplitude non-synchronous transients, FIG. 6): large amplitude calcium signals that were highly synchronized

picrotoxin [reference compound]
averaged calcium responses / network activity ([1]; control cultures treated with 2.4 μM picrotoxin, FIG. 8D): induces network synchrony and bursting
